Laboratory results published in patent publication EP0845034B1, “PEPTIDE HAVING PRONOCICEPTIVE PROPERTIES” (Euroscreen S.A., priority 1995, dated 1997).
Structures can show the parent of a compound that is named as a salt.

What was measured:
mice [1] = assay: antagonism of nociceptin-induced stimulation of horizontal locomotor activity; assay type: in vivo
mice [2] = details: mouse, in vivo

C=CCN1CC[C@]23c4c5ccc(O)c4O[C@H]2C(=O)CC[C@@]3(O)[C@H]1C5 [Naloxone, Naloxone hydrochloride]
effect on motor-stimulant effect of nociceptin (mice [1]; 0.0-4.5 mg/kg s.c., 10 minutes before i.c.v. 100 ng nociceptin, first 10 minutes of testing): did not suppress

O=C(CCCN1CCC(O)(c2ccc(Cl)cc2)CC1)c1ccc(F)cc1 [haloperidol]
effect on nociceptin-induced stimulation of locomotor activity (mice [1]; increasing doses of D2 dopamine receptor antagonist pretreatment): antagonized

CN1CC[C@]23c4c5ccc(O)c4O[C@H]2[C@@H](O)C=C[C@H]3[C@H]1C5 [morphin]
number of explored holes (mice [2]): 24 ± 2
